Experimental data taken from BindingDB's records for patent US20240140938 (Merck Sharp & Dohme, 2024).

molecular target: T1, Diacylglycerol O-acyltransferase 2 (Homo sapiens, UniProt Q96PD7); experiment: DGAT2 Enzymatic Activity Assay
T1 sequence (Q96PD7 whole entry): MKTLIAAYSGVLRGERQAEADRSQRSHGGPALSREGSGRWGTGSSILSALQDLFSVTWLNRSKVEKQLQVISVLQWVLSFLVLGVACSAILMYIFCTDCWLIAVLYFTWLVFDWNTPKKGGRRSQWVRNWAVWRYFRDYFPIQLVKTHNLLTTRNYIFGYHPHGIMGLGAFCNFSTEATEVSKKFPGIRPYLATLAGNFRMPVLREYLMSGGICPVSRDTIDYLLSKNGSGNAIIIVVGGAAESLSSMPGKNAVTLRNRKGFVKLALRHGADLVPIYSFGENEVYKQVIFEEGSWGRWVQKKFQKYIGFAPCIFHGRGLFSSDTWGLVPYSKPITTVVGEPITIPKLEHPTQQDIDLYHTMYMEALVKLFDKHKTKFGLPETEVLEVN
Procedure: DGAT2 activity was determined by measuring the amount of enzymatic product 13C18-triolein (13C-1,2,3-Tri(cis-9-octadecenoyl)glycerol) using the membrane prep mentioned above. The assay was carried out in ABgene 384-well assay plates in a final volume of 25 μL at rt.

Compound | IC50 [µM]
CC(C)n1nc(-c2cccc(OC(F)F)c2)c2c1C[C@H](C(=O)NC1(C)CS(=O)(=O)C1)CC2 [US20240140938, Example 26] | 0.319
CN1CCC(n2nc(-c3cccc(OC(F)F)c3)c3c2C[C@H](C(=O)N[C@]2(C)CCS(=O)(=O)C2)CC3)CC1 [US20240140938, Example 72] | > 10
CC(C)n1nc(-c2cccc(-n3cccn3)c2)c2c1C[C@H](C(=O)NC1(C)CS(=O)(=O)C1)CC2 [US20240140938, Example 97] | > 10
CC(C)n1nc(-c2cccc(C(C)(F)F)c2)c2c1C[C@H](C(=O)NC1(C)CS(=O)(=O)C1)CC2 [US20240140938, Example 102] | 8.84
